Where a name gives a salt, the structure may show the parent alone. Read-outs that look alike come from different tables or passages of the source.
What was measured:
U937 cells = test: Cellular assay in U937 cells on cell death (necroptosis), TNFα/zVAD.fmk; assay type: cell-based
Source text: Cellular Assay in U937 Cells to Measure the Activity of RIPK1-Inhibitors on Cell Death (Necroptosis).
Cell death was quantified in 96 well plates by determination of the amount of live cell using a CellTiter 96 AQueous reagent (Promega), a calorimetric method to measure the amount of live cells by reducing tetrazolium compound [3-(4,5-dimethylthiazol-2-yl)-5-(3-carboxymethoxyphenyl)-2-(4-sulfophenyl)-2H-tetrazolium, inner salt; MTS] into formazan. Absorbance of formazan was read at 490 nm. The inhibitory activity of the test compound was quantified in a concentration response curve (CRC) experiment. Compounds were obtained as 10 mM stock solutions and were diluted 1 to 10 volumes with DMSO to yield a 1 mM solution. From this solution 2 μl were diluted with 998 μl growth medium. 100 μl of 2 μM compound solution was further diluted sequentially with a dilution factor of 2.5 by adding 150 μl growth medium. A total of 10 concentrations were tested ranging from 10 μM to 0.26 nM or from 1 μM to 0.07 nM.
U937 cells were cultured in RPMI1640 Glutamax and 10% heat inactivated FBS. 50 μl cell suspension containing 1×10^6 cells/ml supplemented with 50 μM zVAD.fmk (Benzyloxycarbonyl-Val-Ala-Asp (OMe) fluoromethylketone) and 100 ng/ml recombinant human TNFα were dispensed in each well of a 96-well plate. 50 μl of compound dilutions (see above) were added and the cell suspension incubated overnight (18 to 24 hours) at 37° C., 5% CO2 in a humidified atmosphere (95% rH). High (no compound) and low control (no TNFα, zVAD.fmk) were tested with 7 replicates; all compound concentrations were tested in duplicates on each experimental plate.
CellTiter 96 Aqueous reagent was mixed (100 μl PMS (phenazine methosulfate) solution/2 ml MTS (3-(4,5-[…])-5-(3-carboxymethoxyphenyl)-2-(4-sulfophenyl)-2H-tetrazolium, inner salt) solution) and 20 μl were added per well. After 4 hours incubation at 37° C. (5% CO2 95% rH) optical density was measured at 490 nm on a microplate reader (Tecan Infinite M1000).
The % inhibition is expressed as percentage of the maximal inhibition value obtained in the absence of TNFα/zVAD.fmc.

[1] = target: T1, hRIPK1 (aa 1-375) fusion protein (Homo sapiens, UniProt Q13546); test: ADP-Glo kinase assay, RIPK1 autophosphorylation; assay type: biochemical
T1 construct: hRIPK1 (aa 1-375) fusion protein
T1 sequence (Q13546 1-375): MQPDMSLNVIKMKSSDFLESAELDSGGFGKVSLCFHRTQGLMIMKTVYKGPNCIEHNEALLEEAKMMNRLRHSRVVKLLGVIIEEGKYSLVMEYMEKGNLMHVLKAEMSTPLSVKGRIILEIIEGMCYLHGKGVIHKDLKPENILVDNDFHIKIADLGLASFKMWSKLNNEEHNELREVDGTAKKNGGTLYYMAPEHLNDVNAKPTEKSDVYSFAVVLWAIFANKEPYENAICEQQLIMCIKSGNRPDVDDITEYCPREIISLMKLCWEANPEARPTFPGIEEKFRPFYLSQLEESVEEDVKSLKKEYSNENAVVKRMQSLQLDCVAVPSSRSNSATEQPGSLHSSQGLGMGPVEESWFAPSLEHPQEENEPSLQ
Procedure: Evaluation of Receptor-Interacting Protein Kinase 1 Inhibition.
The catalytic activity of RIPK1 was measured by monitoring the conversion of Adenosine triphosphate (ATP) to Adenosine diphosphate (ADP) due to autophosphorylation using an ADP-Glo kinase kit (Promega, catalog no. V9104).
After another 240 minutes incubation at room temperature, 5 μl Promega ADP-Glo reagent I were added to quench the reaction and deplete unconsumed ATP. After an incubation period of 30 minutes, 10 μl Promega ADP-Glo detection reagent II were added resulting in conversion of ADP to ATP, which generates a light-reaction between luciferase and luciferin. Luminescence was quantified after 30 minutes with a Pherastar FS (BMG LABTECH, Ortenberg).
The adjustment was obtained by nonlinear regression using the Levenberg Marquardt algorithm.

[2] = Homo sapiens, U-937, Table 2, read-out: U937 IC50

Row | Compound | IC50 (U937 cells; Table 2, read-out: U937 IC50) [µM] | IC50 ([1]; Table 1) [µM] | IC50 (U937 cells; [2]) [µM] | IC50 (U937 cells; Homo sapiens, U-937, Key compound table 4, read-out: U937 IC50 (uM) Mean) [µM] | IC50 ([1]; Key compound table 4) [µM]
1 | 2-[(3R,4R)-4-[(3S)-3-(5-cyano-3-pyridyl)isoxazolidine-2-carbonyl]-3-fluoro-1-piperidyl]pyrimidine-4-carboxamide and 2-[(3S,4S)-4-[(3S)-3-(5-cyano-3-pyridyl)isoxazolidine-2-carbonyl]-3-fluoro-1-piperidyl]pyrimidine-4-carboxamide [Ex. 092] | 0.0502 | 0.0122 | – | – | –
2 | N#Cc1cncc([C@@H]2CCON2C(=O)C2(F)CCN(c3nccc(C#N)n3)CC2(F)F)c1 (mixture of isomers) [Ex. 123] | – | 0.0263 | 0.0442 | – | –
3 | NC(=O)c1cc(N2CCC(C(=O)N3OCCC3C3CCCOC3)CC2)ncn1 (racemic) [Ex. 023*, 6-[4-[3-Tetrahydropyran-3-ylisoxazolidine-2-carbonyl]-1-piperidyl]pyrimidine-4-carboxamide TFA salt] | – | 0.797 | 4.67 | – | –
4 | NC(=O)c1ccnc(N2CCC(C(=O)N3OCCC3c3cncc(CO)c3)CC2)n1 (racemic) [Ex. 025*, 2-[4-[3-[5-(Hydroxymethyl)-3-pyridyl]isoxazolidine-2-carbonyl]-1-piperidyl]pyrimidine-4-carboxamide] | – | 0.0516 | 0.498 | – | –
5 | NC(=O)c1cncc(C2CCON2C(=O)C2CCN(c3cc(C(N)=O)ncn3)CC2)c1 (racemic) [Ex. 030*] | – | 0.247 | 4.17 | – | –
6 | N#Cc1ccnc(N2CCC(C(=O)N3OCCC3c3cncc(CO)c3)CC2)n1 (racemic) [Ex. 031*] | – | 0.0515 | 0.395 | – | –
7 | NC(=O)c1cc(N2CCC(C(=O)N3OCCC3c3cncc(CO)c3)CC2)ncn1 (racemic) [Ex. 032*, 6-[4-[3-[5-(Hydroxymethyl)-3-pyridyl]isoxazolidine-2-carbonyl]-1-piperidyl]pyrimidine-4-carboxamide TFA salt] | – | 0.18 | 2.44 | – | –
8 | NC(=O)c1ccnc(N2CCC(C(=O)N3OCCC3c3ccc(N)nc3)CC2)n1 (racemic) [Ex. 036*] | – | 0.0489 | 0.198 | – | –
9 | N#Cc1ccnc(N2CCC(C(=O)N3OCCC3c3ccc(N)nc3)CC2)n1 (racemic) [Ex. 037*] | – | 0.0315 | 0.177 | – | –
10 | NC(=O)c1cc(N2CCC(C(=O)N3OCC[C@H]3c3ccc(N)nc3)CC2)ncn1 (racemic) [Ex. 038*] | – | 0.0899 | 1.71 | – | –
11 | Cn1cc(C2CCON2C(=O)C2CCN(c3nccc(C(N)=O)n3)CC2)cn1 (racemic) [Ex. 046*] | – | 0.0651 | 0.605 | – | –
12 | Cn1cc(C2CCON2C(=O)C2CCN(c3nccc(C#N)n3)CC2)cn1 (racemic) [Ex. 047*] | – | 0.0649 | 0.549 | – | –
13 | NC(=O)c1cc(N2CCC(C(=O)N3OCCC3c3cncc(F)c3)CC2)ncn1 (racemic) [Ex. 048*] | – | 0.0332 | 0.133 | – | –
14 | N#Cc1cc(N2CCC(C(=O)N3OCCC3c3cncc(F)c3)CC2)ncn1 (racemic) [Ex. 049*] | – | 0.00999 | 0.0411 | – | –
15 | NC(=O)c1ccnc(N2CCC(C(=O)N3OCCC3c3cncc(F)c3)CC2)n1 (racemic) [Ex. 050*] | – | 0.0267 | 0.0329 | – | –
16 | COC(=O)c1ccnc(N2CCC(C(=O)N3OCCC3c3cncc(F)c3)CC2)n1 (racemic) [Ex. 051*, Methyl 2-[4-[3-(5-fluoro-3-pyridyl)isoxazolidine-2-carbonyl]-1-piperidyl]pyrimidine-4-carboxylate] | – | 0.134 | 0.678 | – | –
17 | O=C(O)c1ccnc(N2CCC(C(=O)N3OCCC3c3cncc(F)c3)CC2)n1 (racemic) [Ex. 054*] | – | 0.767 | > 10 | – | –

Row | Compound | IC50 (U937 cells; Table 2, read-out: U937 IC50) [µM] | IC50 ([1]; Table 1) [µM] | IC50 (U937 cells; [2]) [µM] | IC50 (U937 cells; Homo sapiens, U-937, Key compound table 4, read-out: U937 IC50 (uM) Mean) [µM] | IC50 ([1]; Key compound table 4) [µM]
18 | Cn1ccc(C2CCON2C(=O)C2CCN(c3nccc(C#N)n3)CC2)n1 (racemic) [Example 007, 2-[4-[3-(1-methylpyrazol-3-yl)isoxazolidine-2-carbonyl]-1-piperidyl] pyrimidine-4-carbonitrile] | – | 0.0649 | 2.42 | – | –
19 | N#Cc1ccnc(N2CCC(C(=O)N3OCCC3c3ccc4nccn4c3)CC2)n1 (racemic) [Example 014, 2-[4-[3-imidazo[1,2-a]pyridin-6-ylisoxazolidine-2-carbonyl]-1-piperidyl] pyrimidine-4-carbonitrile TFA salt] | – | 0.729 | > 10 | – | –
20 | NC(=O)c1cc(N2CCC(C(=O)N3OCCC3c3ccc4nccn4c3)CC2)ncn1 (racemic) [Example 015, 6-[4-[3-imidazo[1,2-a]pyridin-6-ylisoxazolidine-2-carbonyl]-1-piperidyl] pyrimidine-4-carboxamide TFA salt] | – | 13.1 | – | – | –
21 | NC(=O)c1ccnc(N2CCC(C(=O)N3OCCC3C3CCCOC3)CC2)n1 (racemic) [Example 024, 2-[4-[3-Tetrahydropyran-3-ylisoxazolidine-2-carbonyl]-1-piperidyl]pyrimidine-4-carboxamide] | – | 0.156 | 0.834 | – | –
22 | CNC(=O)c1cncc(C2CCON2C(=O)C2CCN(c3nccc(C#N)n3)CC2)c1 (racemic) [Example 042, 5-[2-[1-(4-cyanopyrimidin-2-yl)piperidine-4-carbonyl]isoxazolidin-3-yl]-N-methyl-pyridine-3-carboxamide] | – | 0.193 | 6.01 | – | –
23 | NC(=O)c1ccnc(N2CCC(C(=O)N3OCCC3c3cncc(F)c3)CC2)n1 (single isomer, unassigned) [Ex. 069] | – | > 33 | > 10 | – | –
24 | N#Cc1cncc([C@@H]2CCON2C(=O)[C@@H]2CCN(c3nccc(C(N)=O)n3)C[C@@H]2F)c1 (single isomer, unassigned) [Ex. 095] | – | 0.0305 | 0.12 | – | –
25 | Cc1ccc([C@@H]2CCON2C(=O)C2CCN(c3cc(C(N)=O)ncn3)CC2)s1 (single isomer, unassigned) [Ex. 176] | – | 0.022 | 0.00371 | – | –
26 | Cc1ccc(C2CCON2C(=O)C2CCN(c3ncc(C)c(C(N)=O)n3)CC2F)cn1 (single isomer, unassigned) [Ex. 185] | 1.15 | 0.297 | – | – | –
27 | N#Cc1cncc([C@@H]2CCON2C(=O)[C@H]2CCN(c3nccc(C(N)=O)n3)C[C@H]2F)c1 (single isomer, unassigned) [compound 96] | – | 0.026 | 0.204 | – | –
28 | N#Cc1cncc([C@@H]2CCON2C(=O)C2CCN(c3nccc(C(=O)O)n3)CC2)c1 (single isomer, unassigned) [compound 102] | – | 0.443 | > 10 | – | –
29 | Cc1ccc(C2CCON2C(=O)C2CCN(c3ncc(C)c(C(N)=O)n3)CC2F)cn1 (single isomer, unassigned) [compound 186] | 0.148 | 0.0384 | – | – | –
30 | N#Cc1cncc([C@@H]2CCON2C(=O)C2CCN(c3cc(C(N)=O)ncn3)CC2)c1 [Ex. 001] | – | 0.0326 | 0.133 | – | –
31 | N#Cc1cncc([C@@H]2CCON2C(=O)C2CCN(c3nccc(C(N)=O)n3)CC2)c1 [Ex. 004] | – | – | – | 0.022 | 0.016
32 | N#Cc1cncc([C@@H]2CCON2C(=O)C2CCN(c3nccc(C(=O)O)n3)CC2)c1 [Ex. 009] | – | 4.69 | > 10 | – | –
33 | N#Cc1cncc([C@H]2CCON2C(=O)C2CCN(c3nccc(C(N)=O)n3)CC2)c1 [Ex. 016] | – | 18.8 | – | – | –
34 | COC(=O)c1ccnc(N2CCC(C(=O)N3OCC[C@H]3c3cncc(C#N)c3)CC2)n1 [compound 100] | – | 0.0245 | – | – | –

From patent publication US12655139B2, “Isoxazolidines as RIPK1 inhibitors and use thereof” (SANOFI, priority 2020, dated 2026)
